Measured values: patent US8592552B2 (priority 2007, dated 2013)
Where no end group is shown, it is not given here.

Assays:
[1] = tested on: African swine fever virus (ASFV) BA71V; type: cell-based

In the case of RRRRRRRRSLVSSDESSSGSSHSSGEHS [RS28], the “proliferation of Vero cells (proliferative index)” value (Vero cells) is reported as “not modified”.
With “SS20: 20-residue negative control peptide of irrelevant sequence (SLVSSDESSSGSSHSSGEHS) [reference compound]” the “I.C.E. at 50 μM (inhibition of the cytopathic effect)” value [1] was “no” and the “I.C.E. at 100 μM (inhibition of the cytopathic effect)” value [1] was “no”.
